Assays:
[1] = target: T1, endogenous P2X7 in THP-1 cells (Homo sapiens, UniProt Q99572); assay: Fura-2 calcium measurements in THP-1 monocytes; assay type: cell-based; conditions: for Effect on ATP-induced calcium response: 500 µM ATP co-applied with 10 µM glycoside
T1 sequence (Q99572 1-394 limits assumed): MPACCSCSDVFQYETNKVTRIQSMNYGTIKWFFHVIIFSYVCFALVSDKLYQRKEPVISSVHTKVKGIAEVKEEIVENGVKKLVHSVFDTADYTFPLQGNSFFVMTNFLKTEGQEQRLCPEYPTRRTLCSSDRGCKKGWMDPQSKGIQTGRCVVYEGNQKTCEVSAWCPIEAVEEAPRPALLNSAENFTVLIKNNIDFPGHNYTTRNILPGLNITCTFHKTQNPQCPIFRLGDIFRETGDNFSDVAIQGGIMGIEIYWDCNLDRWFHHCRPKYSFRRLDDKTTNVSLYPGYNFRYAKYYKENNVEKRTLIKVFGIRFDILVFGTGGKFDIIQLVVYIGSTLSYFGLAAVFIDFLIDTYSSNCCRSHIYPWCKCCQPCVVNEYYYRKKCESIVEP
Procedure: THP-1 cells were pelleted by centrifugation (300g, 5 minute), washed, and resuspended in Hanks’ balanced salt solution buffer containing 2 μM fura-2 AM (HelloBio) and 250 μM (±)-sulfinpyrazone. Cells were loaded for 1 hour in a waterbath at 37°C while shielded from light with foil. Loaded cells were washed once with 5 ml Hanks’ balanced salt solution to remove excess fura-2 AM dye. THP-1 cells were then resuspended, counted, and plated at 2 × 10^5 cells per well in a standard clear 96-well plate (NUNC 167008; Thermo Scientific) in low divalent assay buffer without Mg^2+ (145 mM NaCl, 2 mM KCl and 2 mM CaCl2, 13 mM glucose, 10 mM HEPES, pH 7.3) containing 250 μM (±)-sulfinpyrazone. The 10× concentration of agonist (ATP) was prepared in the same assay buffer. ATP was injected automatically into wells at 30 seconds in a Flexstation 3 microplate reader. Ratiometric data were acquired using 340 and 380 nm for excitation wavelengths, 520 nm as the emission wavelength, and six reads per well (PMT medium). Area under the curve was calculated using standard zero baseline normalization with a lag time 0–300 seconds using SoftMax Pro version 5.4 software.
(§1) Results are expressed as means ± S.D. from the indicated number of experiments. For YO-PRO-1 dye uptake and intracellular calcium experiments, each independent experiment used triplicate wells, and the means of the replicates were collated and plotted. Technical replicates were used to ensure reliability of fluorescence values. […] Dose-response curves were plotted by a nonlinear regression fit with variable slope using GraphPad Prism software version 7. Half-maximal responses are expressed as EC50 values with 95% confidence intervals. These values were calculated from the collated data for each compound from three independent experiments. Statistical differences were determined by analysis of the data by one-way ANOVA followed by Dunnett’s multiple comparison test or Sidak’s multiple comparison test using GraphPad Prism version 7. P < 0.05 was the accepted minimum level of significance.

HEK-hP2X7 cells = assay: Cell viability assay (resazurin/Alamar blue) in HEK-hP2X7 cells; assay type: cell-based, human; conditions: 24 hours
Procedure: HEK-hP2X7 or THP-1 cells were seeded at 5 × 10^3 cells per well in a volume of 100 μl for 24 hours in 96-well plates (Nunclon Edge plates, catalog number 167425; Thermo Scientific). Cells were plated in DMEM:F12 medium or RPMI 1640 medium containing 1% FBS and penicillin/streptomycin for 24 hours in a humidified incubator at 37°C with a constant supply of 5% CO2. Edge wells of the plates were filled with autoclaved distilled water to prevent evaporation of media from wells containing cells. The compounds and ATP were made at 2× final concentration in 1% FBS DMEM:F12 and 100 μl added to the cells for 24 hours. After incubation, resazurin sodium salt (CAS 62758-13-8; Sigma Aldrich) at 0.1 mg/ml in sterile PBS was added to the plate (20 into 200 µl culture medium per well). Cells were incubated for a further 2 hours in a humidified incubator at 37°C with a supply of 5% CO2. A Flexstation 3 microplate reader was used to acquire data. Endpoint fluorescence data were measured using 570 nm excitation wavelength, 600 nm emission wavelength (cutoff at 590 nm), and three reads per well (PMT low). Data were analyzed by performing background correction through subtracting blank medium readings (without cells) from all samples and then normalizing each sample to medium treated cells (control treatment, 100%) as percentage of control.
Results are expressed as means ± S.D. from the indicated number of experiments. For YO-PRO-1 dye uptake and intracellular calcium experiments, each independent experiment used triplicate wells, and the means of the replicates were collated and plotted. Technical replicates were used to ensure reliability of fluorescence values. Cell viability data were normalized to the vehicle control for each experiment after background correction had been performed. Dose-response curves were plotted by a nonlinear regression fit with variable slope using GraphPad Prism software version 7. Half-maximal responses are expressed as EC50 values with 95% confidence intervals. These values were calculated from the collated data for each compound from three independent experiments. Statistical differences were determined by analysis of the data by one-way ANOVA followed by Dunnett’s multiple comparison test or Sidak’s multiple comparison test using GraphPad Prism version 7. P < 0.05 was the accepted minimum level of significance.

human P2X7 [2] = target: T2, human P2X7 (Homo sapiens, UniProt Q99572); assay: YO-PRO-1 dye uptake assay in HEK-hP2X7 cells; assay type: cell-based; conditions: 10 µM glycoside; for PAM effect on ATP dose-response curve: HEK-hP2X7, result in words; for EC50 ratio: average EC50 for ATP + vehicle of each set of experiments used; for Maximum response (fold increase): maximum response defined at 1 mM ATP
T2 construct: expressed in transfected cells
T2 sequence (Q99572 1-595): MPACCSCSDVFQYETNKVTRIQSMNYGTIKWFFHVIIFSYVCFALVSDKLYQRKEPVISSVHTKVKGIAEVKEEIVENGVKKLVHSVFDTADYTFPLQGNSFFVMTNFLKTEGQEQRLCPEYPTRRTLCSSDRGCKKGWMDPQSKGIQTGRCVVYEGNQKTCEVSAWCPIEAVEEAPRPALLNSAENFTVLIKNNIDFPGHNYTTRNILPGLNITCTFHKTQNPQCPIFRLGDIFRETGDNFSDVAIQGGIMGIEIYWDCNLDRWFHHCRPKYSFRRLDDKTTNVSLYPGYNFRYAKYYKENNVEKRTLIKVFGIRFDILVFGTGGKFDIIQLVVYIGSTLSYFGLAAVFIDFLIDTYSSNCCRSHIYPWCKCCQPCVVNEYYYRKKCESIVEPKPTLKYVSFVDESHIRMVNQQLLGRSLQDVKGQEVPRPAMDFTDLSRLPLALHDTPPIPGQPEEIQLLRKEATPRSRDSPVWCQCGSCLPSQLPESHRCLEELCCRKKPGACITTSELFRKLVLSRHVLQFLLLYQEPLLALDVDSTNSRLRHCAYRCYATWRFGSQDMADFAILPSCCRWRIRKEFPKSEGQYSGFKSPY
Procedure: ATP-induced dye uptake experiments were performed as described previously ([Bidula et al., 2019b]). Briefly, HEK-hP2X7 cells were plated at 2 × 10^4 cells per well (100 μl per well) in complete medium and left overnight to attach to poly-D-lysine–coated 96-well plates. YO-PRO-1 iodide was prepared in a low divalent buffered solution ([…], 2 mM KCl, 13 mM D-glucose, 10 mM HEPES, 0.2 mM CaCl2 pH 7.3) to a final concentration of 2 μM. Medium was removed from the plate using a manual multichannel pipette and YO-PRO-1 containing buffer applied to wells (180 μl per well). […] A Flexstation 3 plate reader (Molecular Devices, Sunnyvale, CA) was used to record YO-PRO-1 fluorescence in HEK-hP2X7 for 300 seconds after the addition of ATP (at 10× final concentration) with/without ginsenoside compounds or vehicle (DMSO). Plates were allowed to warm up to 37°C for 10 minutes before initiating the recording. Baseline recordings were made for 40 seconds before compound addition using the Flexstation 3 fluidics system. YO-PRO-1 fluorescence was measured at 520 nm after excitation at 490 nm (auto cutoff at 495 nm), and the sample interval was 3.5 seconds. Flexstation settings were photomultiplier tube (PMT) medium, six reads per well, pipette height 170, and a rate of injection of 3. Data were acquired using Softmax Pro version 5.4 (Molecular Devices). To analyze the data, area under the dye uptake curve was calculated in Softmax Pro version 5 using zero baseline data with a lag time of 50 seconds (50–300 seconds).
as §1

human P2X7 [3] = target: T2, human P2X7; set-up: method as in Helliwell et al., 2015; conditions: ref Helliwell et al., 2015; cited from earlier work

SMILES	Antagonist effect on ginsenoside-CK potentiated calcium response ([1]; 10 µM antagonist pretreatment, 500 µM ATP + ginsenoside-CK)	Antagonist effect on calcium response to ATP alone ([1]; 500 µM ATP, antagonist pretreatment)	Cell viability in combination with ATP (HEK-hP2X7 cells)	PAM effect on ATP dose-response curve (human P2X7 [2])	EC50 ratio (human P2X7 [2])	Maximum response (fold increase) (human P2X7 [2]) [fold]	Effect on ATP-induced calcium response [1]	Maximum response (fold increase) (human P2X7 [2]; listed as gypenoside XVII) [fold]	PAM activity at human P2X7 (human P2X7 [3])
O=C1CSC(=O)N1C(CCc1ccncc1)COc1ccc(-c2cccc([N+](=O)[O-])c2)cc1 (centres unmarked) [AZ11645373, reference compound]	completely abolished	did not dramatically affect							
CC(C)=CCC[C@@](C)(O)[C@H]1CC[C@]2(C)[C@@H]1[C@H](O)C[C@@H]1[C@@]3(C)CC[C@H](O[C@@H]4O[C@H](CO)[C@@H](O)[C@H](O)[C@H]4O[C@@H]4O[C@H](CO)[C@@H](O)[C@H](O)[C@H]4O)C(C)(C)[C@@H]3CC[C@]12C [Ginsenoside-20(R)-Rg3, 20(R)-ginsenoside-Rg3]			neither gypenoside XVII nor 20(R)-Rg3 in combination with ATP affected cell viability	inactive	1.0	0.94			
CC(C)=CCC[C@](C)(O)[C@H]1CC[C@]2(C)[C@@H]1[C@H](O)C[C@@H]1[C@@]3(C)CC[C@H](O[C@@H]4O[C@H](CO)[C@@H](O)[C@H](O)[C@H]4O[C@@H]4O[C@H](CO)[C@@H](O)[C@H](O)[C@H]4O)C(C)(C)[C@@H]3CC[C@]12C [Ginsenoside-20(S)-Rg3, 20(S)-ginsenoside-Rg3]			could reduce cell viability	positive modulator activity with a reduced EC50 for ATP and increased maximal response	1.8	2.4	potentiated		
CC(C)=CCC[C@](C)(O[C@@H]1O[C@H](CO)[C@@H](O)[C@H](O)[C@H]1O)[C@H]1CC[C@]2(C)[C@@H]1[C@H](O)C[C@@H]1[C@@]3(C)CC[C@H](O)C(C)(C)[C@@H]3[C@@H](O)C[C@]12C [Ginsenoside-F1, ginsenoside-F1]				did not potentiate P2X7 responses	1.1	1.46	inactive		
CC(C)=CCC[C@](C)(O[C@@H]1O[C@H](CO)[C@@H](O)[C@H](O)[C@H]1O)[C@H]1CC[C@]2(C)[C@@H]1[C@H](O)C[C@@H]1[C@@]3(C)CC[C@H](O[C@@H]4O[C@H](CO)[C@@H](O)[C@H](O)[C@H]4O)C(C)(C)[C@@H]3CC[C@]12C [Ginsenoside-F2, ginsenoside-F2]			could reduce cell viability	mixed type I/II effect	5.4	2.23	potentiated		
CC(C)=CCC[C@](C)(O[C@@H]1O[C@H](CO)[C@@H](O)[C@H](O)[C@H]1O)[C@H]1CC[C@]2(C)[C@@H]1[C@H](O)C[C@@H]1[C@@]3(C)CC[C@H](O[C@@H]4O[C@H](CO)[C@@H](O)[C@H](O)[C@H]4O[C@@H]4O[C@H](CO)[C@@H](O)[C@H](O)[C@H]4O)C(C)(C)[C@@H]3CC[C@]12C [Ginsenoside-Rd, ginsenoside-Rd]			very effective at enhancing cell death	mixed type I/II effects	3.8	2.77	potentiated		
CC(C)=CCC[C@](C)(O[C@@H]1O[C@H](CO[C@@H]2O[C@H](CO)[C@@H](O)[C@H](O)[C@H]2O)[C@@H](O)[C@H](O)[C@H]1O)[C@H]1CC[C@]2(C)[C@@H]1[C@H](O)C[C@@H]1[C@@]3(C)CC[C@H](O[C@@H]4O[C@H](CO)[C@@H](O)[C@H](O)[C@H]4O)C(C)(C)[C@@H]3CC[C@]12C [Gypenoside XVII, gypenoside XVII]			neither gypenoside XVII nor 20(R)-Rg3 in combination with ATP affected cell viability		2.4	2.0		2	
CC(C)=CCC[C@](C)(O)[C@H]1CC[C@]2(C)[C@@H]1[C@H](O)C[C@@H]1[C@@]3(C)CC[C@H](O)C(C)(C)[C@@H]3CC[C@]12C [PPD, protopanaxadiol]				no effect on the ATP dose-response curve					no activity
CC(C)=CCC[C@](C)(O)[C@H]1CC[C@]2(C)[C@@H]1[C@H](O)C[C@@H]1[C@@]3(C)CC[C@H](O[C@@H]4O[C@H](CO)[C@@H](O)[C@H](O)[C@H]4O)C(C)(C)[C@@H]3CC[C@]12C [ginsenoside-Rh2]									able to potentiate hP2X7 responses
